Experimental data as given in PubChem BioAssay (NCI).
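Assay format: 96-well plates, 48-hour exposure. The concentration for 50% growth inhibition is given as GI50. TGI marks complete inhibition of growth.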

How the values were obtained:
Assay in all cases: NCI tumour cell line growth inhibition, 48 h; in the data active = GI50 below about 0.43 µM; inactive = the rest
EKVX NSCLC = test system: EKVX NSCLC
NCI-H522 lung = test system: NCI-H522 lung
A549 NSCLC = test system: A549 NSCLC
NCI-H460 lung = test system: NCI-H460 lung
OVCAR-5 ovarian = test system: OVCAR-5 ovarian
OVCAR-8 ovarian = test system: OVCAR-8 ovarian
SN12C renal = test system: SN12C renal
SNB-19 CNS = test system: SNB-19 CNS
NCI-H226 lung = test system: NCI-H226 lung
OVCAR-4 ovarian = test system: OVCAR-4 ovarian
HOP-18 NSCLC = test system: HOP-18 NSCLC

CC(=O)OC/C=C/Cn1ncc(=O)[nH]c1=O
> 100 µM: TGI (EKVX NSCLC) | TGI (NCI-H522 lung) | TGI (A549 NSCLC) | TGI (NCI-H460 lung) | TGI (OVCAR-5 ovarian) | TGI (OVCAR-8 ovarian) | TGI (SN12C renal) | TGI (SNB-19 CNS) | TGI (NCI-H226 lung)

Nc1nncc2c1ccn2C1OC(CO)C(O)C1O (stereo unspecified)
> 100 µM: TGI (EKVX NSCLC) | TGI (OVCAR-4 ovarian) | TGI (A549 NSCLC) | TGI (NCI-H460 lung) | TGI (HOP-18 NSCLC) | TGI (OVCAR-5 ovarian) | TGI (OVCAR-8 ovarian) | TGI (SN12C renal) | TGI (SNB-19 CNS) | TGI (NCI-H226 lung)

Cc1ccc(S(=O)(=O)N/N=c2\c(C)c(C3=NS(=O)(=O)c4cc(S(N)(=O)=O)c(Cl)cc4N3)oc3c(Cl)cc(Cl)cc23)cc1
> 100 µM: TGI (EKVX NSCLC) | TGI (OVCAR-4 ovarian) | TGI (A549 NSCLC) | TGI (NCI-H460 lung) | TGI (HOP-18 NSCLC) | TGI (OVCAR-5 ovarian) | TGI (OVCAR-8 ovarian) | TGI (SN12C renal) | TGI (SNB-19 CNS) | TGI (NCI-H226 lung)

CCOC(=O)Nc1cc2c(c(N)n1)N=C(c1ccccc1)[C@H](C)N2
0.0464 µM: TGI (NCI-H460 lung) | TGI (NCI-H226 lung)
< 0.0001 µM: TGI (NCI-H522 lung)
87.5 µM: TGI (SNB-19 CNS)
> 100 µM: TGI (EKVX NSCLC) | TGI (OVCAR-4 ovarian) | TGI (A549 NSCLC) | TGI (HOP-18 NSCLC) | TGI (OVCAR-8 ovarian) | TGI (SN12C renal)
53.9 µM: TGI (OVCAR-5 ovarian)
active: GI50 (SN12C renal) < 0.0001 µM
inactive: GI50 (OVCAR-4 ovarian) 16.2 µM | GI50 (HOP-18 NSCLC) 29.1 µM

O=C(CCl)NC(Cc1ccc(F)cc1)C(=O)O (stereo unspecified)
> 100 µM: TGI (EKVX NSCLC) | TGI (NCI-H522 lung) | TGI (OVCAR-4 ovarian) | TGI (A549 NSCLC) | TGI (NCI-H460 lung) | TGI (HOP-18 NSCLC) | TGI (OVCAR-5 ovarian) | TGI (OVCAR-8 ovarian) | TGI (SN12C renal) | TGI (SNB-19 CNS) | TGI (NCI-H226 lung)

Oc1c2c(c3c4c1N=CC=4CCN=3)-c1c(Br)cc(Br)cc1CCN2
8.66 µM: TGI (OVCAR-5 ovarian)
7.91 µM: TGI (HOP-18 NSCLC)
12.1 µM: TGI (OVCAR-8 ovarian)
> 35.6 µM: TGI (SNB-19 CNS)
17.4 µM: TGI (EKVX NSCLC)
10.3 µM: TGI (A549 NSCLC)
5.86 µM: TGI (SN12C renal)
16.8 µM: TGI (NCI-H226 lung)
4.2 µM: TGI (NCI-H522 lung)
12 µM: TGI (NCI-H460 lung)
6.23 µM: TGI (OVCAR-4 ovarian)

CC(=O)O[C@H]1CC[C@@]2(C)C(=CC[C@@H]3[C@@H]2CC[C@]2(C)Nc4c(cnn4S(C)(=O)=O)C[C@@H]32)C1
> 100 µM: TGI (NCI-H522 lung) | TGI (NCI-H460 lung) | TGI (OVCAR-5 ovarian) | TGI (OVCAR-8 ovarian) | TGI (SN12C renal) | TGI (SNB-19 CNS) | TGI (NCI-H226 lung)

COc1cc(N/N=C/C#N)cc(OC)c1OC
> 10 µM: TGI (EKVX NSCLC) | TGI (OVCAR-4 ovarian) | TGI (A549 NSCLC) | TGI (NCI-H460 lung) | TGI (OVCAR-5 ovarian) | TGI (OVCAR-8 ovarian) | TGI (SN12C renal) | TGI (SNB-19 CNS) | TGI (NCI-H226 lung)
3.68 µM: TGI (NCI-H522 lung)

CC[C@H](Nc1nc(N)nc(C)c1C#N)c1nc2cccc(NCc3ccc(C(=O)NO)cc3)c2c(=O)n1-c1ccccc1
6.84 µM: TGI (EKVX NSCLC)
4.76 µM: TGI (NCI-H460 lung)
5.43 µM: TGI (A549 NSCLC)
6.83 µM: TGI (OVCAR-8 ovarian)
4.13 µM: TGI (NCI-H226 lung)
4.01 µM: TGI (OVCAR-5 ovarian)
7.52 µM: TGI (OVCAR-4 ovarian)
inactive: GI50 (EKVX NSCLC) 2.1 µM | GI50 (OVCAR-4 ovarian) 2.01 µM | GI50 (A549 NSCLC) 2.35 µM | GI50 (NCI-H460 lung) 1.85 µM | GI50 (OVCAR-5 ovarian) 1.49 µM | GI50 (OVCAR-8 ovarian) 2.19 µM | GI50 (NCI-H226 lung) 1.61 µM

Cc1ccc([N+](=O)[O-])cc1NC(=O)C(=O)C(C(=O)c1ccccc1F)C1OC(=O)c2ccccc21 (stereo unspecified)
90.8 µM: TGI (OVCAR-8 ovarian)
59.2 µM: TGI (NCI-H522 lung)
75.5 µM: TGI (SNB-19 CNS)
> 100 µM: TGI (EKVX NSCLC) | TGI (OVCAR-4 ovarian) | TGI (A549 NSCLC) | TGI (NCI-H460 lung) | TGI (OVCAR-5 ovarian) | TGI (SN12C renal)
69.6 µM: TGI (NCI-H226 lung)

NC(=S)Nc1cc(Cl)ccc1Cl
> 100 µM: TGI (EKVX NSCLC) | TGI (NCI-H522 lung) | TGI (OVCAR-4 ovarian) | TGI (A549 NSCLC) | TGI (NCI-H460 lung) | TGI (HOP-18 NSCLC) | TGI (OVCAR-5 ovarian) | TGI (OVCAR-8 ovarian) | TGI (SN12C renal) | TGI (SNB-19 CNS) | TGI (NCI-H226 lung)

N=c1nc2n(cc1F)[C@@H]1O[C@H](CO)[C@@H](O)[C@@H]1O2
> 74.7 µM: TGI (NCI-H522 lung)
> 100 µM: TGI (EKVX NSCLC) | TGI (OVCAR-4 ovarian) | TGI (A549 NSCLC) | TGI (HOP-18 NSCLC) | TGI (OVCAR-5 ovarian) | TGI (OVCAR-8 ovarian) | TGI (SN12C renal) | TGI (SNB-19 CNS) | TGI (NCI-H226 lung)
> 36 µM: TGI (NCI-H460 lung)

O=C1Nc2ccccc2S/C1=C\c1cccc(C(F)(F)F)c1
> 100 µM: TGI (EKVX NSCLC) | TGI (NCI-H522 lung) | TGI (OVCAR-4 ovarian) | TGI (A549 NSCLC) | TGI (NCI-H460 lung) | TGI (OVCAR-5 ovarian) | TGI (OVCAR-8 ovarian) | TGI (SN12C renal) | TGI (SNB-19 CNS) | TGI (NCI-H226 lung)

CC(C)OC(=O)C1=C(O)c2ccccc2S(=O)(=O)N1
> 100 µM: TGI (EKVX NSCLC) | TGI (NCI-H522 lung) | TGI (OVCAR-4 ovarian) | TGI (A549 NSCLC) | TGI (NCI-H460 lung) | TGI (HOP-18 NSCLC) | TGI (OVCAR-5 ovarian) | TGI (OVCAR-8 ovarian) | TGI (SN12C renal) | TGI (SNB-19 CNS) | TGI (NCI-H226 lung)

C=C1CC[C@@H](Br)C(C)(C)[C@]12CCC(C)(O)C(Cl)C2 (stereo partly specified)
36.9 µM: TGI (OVCAR-5 ovarian)
59.1 µM: TGI (HOP-18 NSCLC)
43.4 µM: TGI (SNB-19 CNS)
45.2 µM: TGI (A549 NSCLC)
32.1 µM: TGI (NCI-H460 lung)
37 µM: TGI (OVCAR-8 ovarian)
40.2 µM: TGI (EKVX NSCLC)
30 µM: TGI (SN12C renal)
32 µM: TGI (NCI-H522 lung)
31 µM: TGI (NCI-H226 lung)

CCC1CN2CCC1CC2 (stereo unspecified)
> 100 µM: TGI (EKVX NSCLC) | TGI (NCI-H522 lung) | TGI (OVCAR-4 ovarian) | TGI (A549 NSCLC) | TGI (NCI-H460 lung) | TGI (HOP-18 NSCLC) | TGI (OVCAR-5 ovarian) | TGI (OVCAR-8 ovarian) | TGI (SN12C renal) | TGI (SNB-19 CNS) | TGI (NCI-H226 lung)

Cc1cc2c(cc1C)[n+](=O)c(C#N)c(Cl)n2[O-]
> 100 µM: TGI (SNB-19 CNS) | TGI (NCI-H226 lung)
25.8 µM: TGI (OVCAR-5 ovarian)
28.5 µM: TGI (EKVX NSCLC)
31.2 µM: TGI (OVCAR-4 ovarian)
80.8 µM: TGI (A549 NSCLC)
28.3 µM: TGI (SN12C renal)
26.3 µM: TGI (NCI-H522 lung)
53.2 µM: TGI (OVCAR-8 ovarian)
24.2 µM: TGI (NCI-H460 lung)

O=C1Nc2ccccc2S/C1=C\c1ccccc1C(F)(F)F
49.4 µM: TGI (OVCAR-4 ovarian)
> 100 µM: TGI (EKVX NSCLC) | TGI (NCI-H522 lung) | TGI (A549 NSCLC) | TGI (NCI-H460 lung) | TGI (OVCAR-5 ovarian) | TGI (OVCAR-8 ovarian) | TGI (SN12C renal) | TGI (SNB-19 CNS) | TGI (NCI-H226 lung)

CCCCCCCCCCCCCCCC(=O)OCC1CCCN2CCCCC12 (stereo unspecified)
> 100 µM: TGI (EKVX NSCLC) | TGI (OVCAR-4 ovarian) | TGI (A549 NSCLC) | TGI (NCI-H460 lung) | TGI (OVCAR-5 ovarian) | TGI (OVCAR-8 ovarian) | TGI (SN12C renal) | TGI (SNB-19 CNS) | TGI (NCI-H226 lung)

CCOC(=O)[C@H]1Nc2c(cccc2[N+](=O)[O-])[C@H]2OCC[C@@H]12
> 100 µM: TGI (EKVX NSCLC) | TGI (NCI-H522 lung) | TGI (OVCAR-4 ovarian) | TGI (A549 NSCLC) | TGI (NCI-H460 lung) | TGI (HOP-18 NSCLC) | TGI (OVCAR-5 ovarian) | TGI (OVCAR-8 ovarian) | TGI (SN12C renal) | TGI (SNB-19 CNS) | TGI (NCI-H226 lung)

CC1CCC(O)(C(C)(C(=O)O)c2ccccc2)CC1 (stereo unspecified)
> 100 µM: TGI (EKVX NSCLC) | TGI (NCI-H522 lung) | TGI (OVCAR-4 ovarian) | TGI (A549 NSCLC) | TGI (NCI-H460 lung) | TGI (OVCAR-5 ovarian) | TGI (OVCAR-8 ovarian) | TGI (SN12C renal) | TGI (SNB-19 CNS) | TGI (NCI-H226 lung)

O=C(O)NCc1ccccc1 (tested in a mixture with another compound)
> 95.8 µM: TGI (OVCAR-4 ovarian)
> 85.1 µM: TGI (EKVX NSCLC)
> 87.1 µM: TGI (NCI-H460 lung)
96.7 µM: TGI (NCI-H522 lung)
> 100 µM: TGI (A549 NSCLC) | TGI (OVCAR-5 ovarian) | TGI (OVCAR-8 ovarian) | TGI (SN12C renal) | TGI (SNB-19 CNS)
> 79.7 µM: TGI (NCI-H226 lung)

C/C(=N\Oc1cc(Cl)ncn1)c1ccccn1
> 100 µM: TGI (EKVX NSCLC) | TGI (OVCAR-4 ovarian) | TGI (A549 NSCLC) | TGI (OVCAR-5 ovarian) | TGI (OVCAR-8 ovarian) | TGI (SN12C renal) | TGI (SNB-19 CNS) | TGI (NCI-H226 lung)
39.4 µM: TGI (NCI-H522 lung)
67.9 µM: TGI (NCI-H460 lung)

O=C(N/C(=C\c1cccc([N+](=O)[O-])c1)c1nc2[nH]c(=S)[nH]c(=O)c2[nH]1)c1ccccc1
> 100 µM: TGI (EKVX NSCLC) | TGI (NCI-H522 lung) | TGI (OVCAR-4 ovarian) | TGI (A549 NSCLC) | TGI (NCI-H460 lung) | TGI (HOP-18 NSCLC) | TGI (OVCAR-5 ovarian) | TGI (OVCAR-8 ovarian) | TGI (SN12C renal) | TGI (SNB-19 CNS) | TGI (NCI-H226 lung)
